{"source": "patent US12252457B2", "about": "“Compositions and methods for reducing tactile dysfunction, anxiety, and social impairment” (President and Fellows of Harvard College, priority 2018, dated 2025)", "tested_on": "genetic and environmental mouse models of ASD", "test": "Tactile PPI, air puff response and startle amplitude after acute midazolam or isoguvacine in ASD mouse models", "format": "in vivo", "protocol": "FIGS. 19A-19N show acute administration of the peripherally-restricted GABAA receptor agonist isoguvacine improves tactile hypersensitivity in five genetic and one environmental model of ASD. […] Two-way ANOVA with post-hoc Sidak's test, *, p<0.05. FIG. 19B: Response to a light air puff stimulus alone in mice following i.p. administration of either saline or 2 mg/kg midazolam treatment. Responses are expressed as percent of startle response to a 125 dB noise. Two-way ANOVA with post-hoc Sidak's test, *, p<0.05. FIG. 19C: Magnitude of startle response to a 125 dB noise in mice following i.p. administration of either saline or 2 mg/kg midazolam treatment. Responses are expressed as percent of startle response to a 125 dB noise. Two-way ANOVA with post-hoc Sidak's test, *, p<0.05. FIG. 19D: Magnitude of startle response to a 125 dB noise in mice following i.p. administration of saline, midazolam (2 mg/kg) or a peripherally-restricted GABAA receptor agonist, isoguvacine (2 mg/kg). Responses are expressed as percent of startle response to a 125 dB noise. Two-way ANOVA with post-hoc Sidak's test, *, p<0.05. FIGS. 19E-19G: Liquid chromatography mass spectrometry (LC-MS) quantified isoguvacine concentrations in cerebrospinal fluid (CSF) (FIG. 19E), blood (FIG. 19F) or liver (FIG. 19G) samples of mice treated with: i.p. saline, i.p. isoguvacine (“Iso.”, 20 mg/kg, samples collected 1, 3 or 24 hours post-injection), intracerebral injection isoguvacine (20 mg/kg, 1 hour post-injection), i.p. diazepam (“DZ”, 20 mg/kg, 1 hour post injection) or intracerebral injection diazepam (20 mg/kg, 1 hour post injection). FIG. 19H: Normalized peak chloride flux through α1β3γ2- and α2β3γ2-containing GABAA receptors in response to isoguvacine application. […] FIGS. 19I-19K: GABAA receptor subunit RNA expression levels across peripheral somatosensory neuron subtypes, for the alpha (FIG. 19I), beta (FIG. 19J), and gamma (FIG. 19K) subunit types. […] Two-way ANOVA with post-hoc Sidak's test, *, p<0.05. FIG. 19M: Response to a light air puff stimulus alone in mice following i.p. administration of either saline or 2 mg/kg isoguvacine treatment. Responses are expressed as percent of startle response to a 125 dB noise. Two-way ANOVA with post-hoc Sidak's test, *, p<0.05. FIG. 19N: Magnitude of startle response to a 125 dB noise in mice following i.p. administration of either saline or 2 mg/kg isoguvacine treatment. Responses are expressed as percent of startle response to a 125 dB noise. Two-way ANOVA with post-hoc Sidak's test, *, p<0.05.\nResults of the GABAA receptor restoration experiments raised the possibility that pharmacological treatment with a GABAA receptor agonist may improve tactile reactivity in Mecp2 mutant mice. It was therefore tested whether benzodiazepines, which are positive allosteric modulators (PAMs) of GABAA receptors, would attenuate hairy skin hypersensitivity in Mecp2 mutant mice. Advillin^Cre; Mecp2^f/y mutant mice and their control littermates were administered either vehicle alone or the benzodiazepine midazolam (2 mg/kg, i.p.) in a pseudorandomized manner, and then subjected to tactile PPI. On the following day, treatment regimens were reversed, and tactile PPI was repeated.\nWhile traditional blood-brain barrier (BBB) penetrating benzodiazepines and non-benzodiazepine GABAA receptor PAMs are useful for treating some ASD-related symptoms in patients, including acute anxiety, significant adverse effects including sedation and addictive potential are common (Gudex, 1991). Furthermore, long-term benzodiazepine use is linked to cognitive impairment across multiple domains, including short-term verbal memory and attention (Golombok et al., 1988; Tata et al., 1994), leading to general reluctance within the medical community for prescribing benzodiazepines and other GABAA receptor PAMs to young children (Howes et al., 2018). […]", "note": "Entries after “also recorded” stand apart in the source; their conditions may differ.", "data": [{"smiles": "O=C(O)C1=CCNCC1", "note": "[Isoguvacine, isoguvacine]", "values": [{"measurement": "hairy skin sensitivity (tactile PPI)", "setting": "Advillin^Cre, Gabrb3^f/f mice (homozygous deletion), 2 mg/kg i.p.", "result": "no reduction in hairy skin sensitivity"}, {"measurement": "tactile hypersensitivity (tactile PPI performance and responsivity to air puff)", "setting": "Advillin^Cre, Mecp2^f/y and Advillin^Cre, Gabrb3^f/+ mutant mice, acute 2 mg/kg i.p.", "result": "significantly reduced tactile hypersensitivity; also recorded: improved tactile hypersensitivity"}, {"measurement": "hairy skin hypersensitivity", "setting": "Shank3, Fmr1, and Cntnap2 mutant mice, acute 2 mg/kg i.p.", "result": "attenuated hairy skin hypersensitivity"}, {"measurement": "hairy skin hypersensitivity", "setting": "mice exposed to polyinosinic:polycytidylic acid at E12.5 (maternal immune activation model)", "result": "improvement in hairy skin hypersensitivity"}]}]}
